Measured values published in patent US10538520B2, “Benzamide and nicotinamide compounds and methods of using same” (OncoTartis Inc., priority 2013, dated 2020).

Assays:
MV4-11 = experiment: Cytotoxicity towards MV4-11 cell line; assay type: cell-based; conditions: Homo sapiens
Experimental: (§1) In various embodiments, the compounds of the disclosure are those in which show IC50 values in cytotoxicity experiments towards cells lines MV4-11 and U937 of >20 μM, 10-20 μM, 5-10 μM, 1-5 μM, or <1 μM.
(§2) The IC50 is divided into 5 categories: A<1 μM, B 1-5 μM, C 5-10 μM, D 10-20 μM, and E>20 μM.

U-937 = experiment: Cytotoxicity towards U-937 cell line; assay type: cell-based; conditions: Homo sapiens
Experimental: as §1, §2

Structure (SMILES) | IC50 (MV4-11) | IC50 (U-937)
O=C1CN(c2ccc(C(=O)NCCCc3cn[nH]c3)cc2C#Cc2ccc(F)cc2)CCN1 [TT-03671] | < 1000 nM | < 1000 nM
O=C(NCCCn1ccnc1)c1ccc(-n2cccn2)c(C#Cc2cccc(F)c2)c1 [TT-03217] | < 1000 nM | < 1000 nM
O=C(NCCc1cnccn1)c1ccc(-n2cccn2)c(C#Cc2ccccc2)c1 [TT-02943] | 10000 to 20000 nM | 1000 to 5000 nM
O=C(NCCCc1cn[nH]c1)c1ccc(-n2cnnc2)c(C#Cc2ccc(F)cc2)c1 [TT-03634] | < 1000 nM | < 1000 nM
Cc1nonc1CN(C)C(=O)c1ccc(-n2cccn2)c(C#Cc2ccccc2)c1 [TT-02800] | 10000 to 20000 nM | 1000 to 5000 nM
O=C(NCCCc1cn[nH]c1)c1ccc(N2CCOCC2)c(C#Cc2ccccc2)c1 [TT-03232] | < 1000 nM | < 1000 nM
CC(CNC(=O)c1ccc(-n2cccn2)c(C#Cc2cccnc2)c1)n1cncn1 (stereo not drawn) [TT-02933] | > 20000 nM | > 20000 nM
Cc1nn(-c2ccc(C(=O)NCCCc3cn[nH]c3)cc2C#Cc2ccccc2)c(C)c1C [TT-03626] | < 1000 nM | < 1000 nM
O=C(NCCCc1cn[nH]c1)c1ccc(N2CCOCC2)c(C#Cc2ccc(F)cn2)c1 [TT-03633] | < 1000 nM | < 1000 nM
CC1(C)CCCN(c2ccc(C(=O)NCCCc3cn[nH]c3)cc2C#Cc2ccc(F)cc2)C1 [TT-03676] | < 1000 nM | < 1000 nM
O=C(NCCCn1ccnc1)c1ccc(-n2cccn2)c(C#Cc2ccc(F)cc2)c1 [TT-02746] | < 1000 nM | < 1000 nM
Cc1ccnn1CCNC(=O)c1ccc(-n2cccn2)c(C#Cc2cccnc2)c1 [TT-02945] | > 20000 nM | > 20000 nM
O=C(NCCCc1cn[nH]c1)c1ccc(-n2cccn2)c(C#Cc2ccccc2Cl)c1 [TT-03321] | < 1000 nM | < 1000 nM
Cc1nc(C)n(CCNC(=O)c2ccc(-n3cccn3)c(C#Cc3ccccc3)c2)n1 [TT-02805] | 1000 to 5000 nM | < 1000 nM
O=C(NCCCn1ccnc1)c1ccc(-c2ccncc2)c(C#Cc2ccccc2)c1 [TT-03256] | < 1000 nM | < 1000 nM
O=C(NCCCc1cn[nH]c1)c1ccc(-n2cccn2)c(C#Cc2ccc(C(F)(F)F)cc2)c1 [TT-03324] | 1000 to 5000 nM | 1000 to 5000 nM
Cn1cc(-c2ccc(C(=O)NCCCc3cn[nH]c3)cc2C#Cc2ccc(F)cc2)cn1 [TT-03585] | < 1000 nM | < 1000 nM
O=C(NCCCc1cn[nH]c1)c1ccc(-n2ccnc2)c(C#Cc2ccc(F)cc2)c1 [TT-03627] | < 1000 nM | < 1000 nM
Cn1nnnc1SCCNC(=O)c1ccc(-n2cccn2)c(C#Cc2ccccc2)c1 [TT-02928] | 10000 to 20000 nM | 5000 to 10000 nM
O=C(NCCCc1cn[nH]c1)c1ccc(N2CCC(O)CC2)c(C#Cc2ccc(F)cc2)c1 [TT-03587] | < 1000 nM | < 1000 nM
COc1cccc(C#Cc2cc(C(=O)NCCCc3cn[nH]c3)ccc2-n2cccn2)c1 [TT-03308] | < 1000 nM | < 1000 nM

Structure (SMILES) | IC50 (MV4-11) | IC50 (U-937)
O=C(NC/C=C/c1cn[nH]c1)c1ccc(N2CCCC2)c(C#Cc2ccc(F)cc2)c1 [TT-03717] | < 1000 nM | < 1000 nM
O=C(NCCCc1ccccn1)c1ccc(-n2cccn2)c(C#Cc2cccnc2)c1 [TT-02941] | 10000 to 20000 nM | 5000 to 10000 nM
C#Cc1cc(C(=O)NCCCc2cn[nH]c2)ccc1-n1cccn1 [TT-03337] | 10000 to 20000 nM | > 20000 nM
O=C(NCCCc1cn[nH]c1)c1ccc(N2CCCCC2CCO)c(C#Cc2ccc(F)cc2)c1 (stereo not drawn) [TT-03592] | < 1000 nM | < 1000 nM
O=C(NCCCc1cn[nH]c1)c1ccc(-n2cccn2)c(C#Cc2cccc(N3CCCC3)n2)c1 [TT-03611] | < 1000 nM | < 1000 nM
NCc1ccc(C#Cc2cc(C(=O)NCCCc3cn[nH]c3)ccc2-n2cccn2)cc1 [TT-03334] | < 1000 nM | < 1000 nM
CCc1nnc(NC(=O)c2ccc(-n3cccn3)c(C#Cc3ccccn3)c2)s1 [TT-02948] | > 20000 nM | > 20000 nM
O=C(NCCCn1ccnc1)c1ccc(-n2cccn2)c(C#Cc2cccnc2)c1 [TT-03264] | < 1000 nM | < 1000 nM
O=C(NCCCc1cn[nH]c1)c1ccc(-n2cccn2)c(C#Cc2cccc(O)c2)c1 [TT-03311] | < 1000 nM | < 1000 nM
O=C(NCCCc1cn[nH]c1)c1ccc(-n2cccn2)c(C#Cc2ccccc2F)c1 [TT-03211] | < 1000 nM | < 1000 nM
O=C(NCCCc1cn[nH]c1)c1ccc(-n2cccn2)c(C#Cc2ccc(F)cn2)c1 [TT-03569] | < 1000 nM | < 1000 nM
Cn1cnc(CNC(=O)c2ccc(-n3cccn3)c(C#Cc3ccccc3)c2)c1 [TT-02721] | > 20000 nM | > 20000 nM
Cc1noc(CNC(=O)c2ccc(-n3cccn3)c(C#Cc3ccccc3)c2)n1 [TT-02802] | > 20000 nM | 1000 to 5000 nM
CN1CCN(c2ccc(C(=O)NCCCc3cn[nH]c3)cc2C#Cc2ccc(F)cc2)CC1 [TT-03598] | < 1000 nM | < 1000 nM
O=C(NCCCn1ccnc1)c1ccc(-n2cccn2)c(C#Cc2ccccc2C(F)(F)F)c1 [TT-02751] | < 1000 nM | < 1000 nM
O=C(NCCCc1cn[nH]c1)c1ccc(-n2cccn2)c(C#Cc2cccc(F)c2)c1 [TT-03198] | < 1000 nM | < 1000 nM
CN(C)c1ccc(C(=O)NCCCc2cn[nH]c2)cc1C#Cc1ccccc1 [TT-03242] | < 1000 nM | < 1000 nM
O=C(NCCCn1ccnc1)c1ccc(-n2cccn2)c(C#Cc2cccc(C(F)(F)F)c2)c1 [TT-03331] | < 1000 nM | < 1000 nM
C[C@@H]1CN(c2ccc(C(=O)N3CC[C@H](O)[C@@H](n4ccnc4)CC3)cc2C#Cc2ccc(F)cc2)C[C@H](C)O1 [TT-03732] | < 1000 nM | 1000 to 5000 nM
O=C(NCc1ccco1)c1ccc(-n2cccn2)c(C#Cc2cccnc2)c1 [TT-02931] | > 20000 nM | 10000 to 20000 nM
O=C(NCCCn1ccnc1)c1ccc(Oc2ccccc2)c(C#Cc2ccccc2)c1 [TT-02741] | < 1000 nM | < 1000 nM
